Experimental data as given in US5639783A, “Ketone derivatives” (Mitsubishi Chemical Corporation, priority 1991, dated 1997).

The compounds below were run against T1, m-calpain (Rattus norvegicus, UniProt Q07009) (assay: Thiol protease inhibitory activity, m-calpain purified from rat brain). Conditions: Table 4.
T1 construct: m-calpain was purified from rat brain; from tissue; host or cells: rat brain
T1 sequence (Q07009 20-700 limits assumed): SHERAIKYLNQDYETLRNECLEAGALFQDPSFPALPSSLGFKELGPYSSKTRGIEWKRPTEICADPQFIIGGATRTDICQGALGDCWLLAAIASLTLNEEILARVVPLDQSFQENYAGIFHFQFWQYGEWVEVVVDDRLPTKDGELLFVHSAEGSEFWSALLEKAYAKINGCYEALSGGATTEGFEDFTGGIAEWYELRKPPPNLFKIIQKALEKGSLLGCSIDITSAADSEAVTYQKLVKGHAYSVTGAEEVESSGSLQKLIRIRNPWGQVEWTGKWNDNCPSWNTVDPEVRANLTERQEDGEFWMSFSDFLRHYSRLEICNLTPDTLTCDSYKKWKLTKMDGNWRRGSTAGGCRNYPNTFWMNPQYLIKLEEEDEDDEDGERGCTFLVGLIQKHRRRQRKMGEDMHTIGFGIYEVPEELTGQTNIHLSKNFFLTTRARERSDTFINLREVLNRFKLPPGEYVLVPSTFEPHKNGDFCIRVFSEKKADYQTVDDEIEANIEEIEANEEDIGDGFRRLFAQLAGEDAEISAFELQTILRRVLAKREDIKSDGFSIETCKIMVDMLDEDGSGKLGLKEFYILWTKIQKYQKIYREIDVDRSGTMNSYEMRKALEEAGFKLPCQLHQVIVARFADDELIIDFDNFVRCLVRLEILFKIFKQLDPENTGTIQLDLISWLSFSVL
T1 sequence (Q64537 1-270 partner): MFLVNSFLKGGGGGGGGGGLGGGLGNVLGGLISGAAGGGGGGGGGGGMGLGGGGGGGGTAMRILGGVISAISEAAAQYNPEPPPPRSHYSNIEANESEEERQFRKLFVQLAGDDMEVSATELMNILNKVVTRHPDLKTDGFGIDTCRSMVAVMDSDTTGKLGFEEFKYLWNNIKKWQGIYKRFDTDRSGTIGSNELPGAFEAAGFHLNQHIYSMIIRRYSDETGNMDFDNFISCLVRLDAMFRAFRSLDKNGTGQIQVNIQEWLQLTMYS
Assay type: biochemical
Method: Inhibitory activity against papain (P-3125, Sigma) and cathepsin B (C-6286, Sigma) was assayed according to the method described in a literature [Biochemical Journal, 201, 189 (1982)]. Cathepsin L was purified from rat kidney according to the method in a literature [Journal of Biochemistry, 100, 35 (1986)], and the inhibitory activity against it was assayed in the same manner as described in the above literature for cathepsin B. Furthermore, m-calpain was purified from rat brain according to a known method [Journal of Biological Chemistry, 254, p. 3210 (1984)] and the inhibitory activity against it was assayed by a method described in a literature [Journal of Biological Chemistry, 259, 12489 (1984)]. It is evident from Tables 3 and 4 that the compounds of the present invention have a potent inhibitory activity against thiol proteases such as papain, cathepsin B, cathepsin L or m-calpain.

Row | SMILES | IC50
1 | CCCC[C@H](NC(=O)[C@H](CC(C)C)NC(=O)c1cc(F)cc(F)c1)C(=O)CSCc1ccco1 [63 (No. 125), (s)-3-[(s)-2-(3,5-difluorobenzoylamino)-4-methylvalerylamino]-1-furfurylthio-2-heptanone] | 5.5 µM
2 | CCCC[C@H](NC(=O)[C@H](CC(C)C)NC(=O)c1ccc(F)c(F)c1)C(=O)CSCc1ccco1 [62 (No. 124), (s)-3-[(s)-2-(3,4-difluorobenzoylamino)-4-methylvalerylamino]-1-furfurylthio-2-heptanone] | 4.3 µM
3 | CCCC[C@H](NC(=O)[C@H](CC(C)C)NC(=O)COc1ccc(OC)cc1)C(=O)CSCc1ccco1 [48 (No. 104), (s)-1-furfurylthio-3-[(s)-2-(4-methoxyphenoxyacetylamino)-4-methylvalerylamino]-2-heptanone] | 1 µM
4 | CCCC[C@H](NC(=O)[C@H](CC(C)C)NC(=O)c1ccccc1OC)C(=O)CSCc1ccco1 [77 (No. 151), (s)-1-furfurylthio-3-[(s)-2-(2-methoxybenzoylamino)-4-methylvalerylamino]-2-heptanone] | 1.2 µM
5 | CCCC[C@H](NC(=O)[C@H](CC(C)C)NC(=O)COc1cccc(OC)c1)C(=O)CSCc1ccco1 [78 (No. 103), (s)-1-furfurylthio-3-[(s)-2-(3-methoxyphenoxyacetylamino)-4-methylvalerylamino]-2-heptanone] | 6 µM
6 | CCCC[C@H](NC(=O)[C@H](CC(C)C)NC(=O)C=Cc1ccc(OC)cc1OC)C(=O)CSCc1ccco1 [85 (No. 166)] | 1.3 µM
7 | CCCC[C@H](NC(=O)[C@H](CC(C)C)NC(=O)c1cccc(F)c1F)C(=O)CSCc1ccco1 [58 (No. 120), (s)-3-[(s)-2-(2,3-difluorobenzoylamino)-4-methylvalerylamino]-1-furfurylthio-2-heptanone] | 1.6 µM
8 | CCCC[C@H](NC(=O)[C@H](CC(C)C)NC(=O)c1ccc(F)cc1)C(=O)CSCc1ccco1 [57 (No. 119), (s)-3-[(s)-2-(4-fluorobenzoylamino)-4-methylvalerylamino]-1-furfurylthio-2-heptanone] | 5.3 µM
9 | CCCC[C@H](NC(=O)[C@H](CC(C)C)NC(=O)c1cc(OC)cc(OC)c1)C(=O)CSCc1ccco1 [80 (No. 155), (s)-3-[(s)-2-(3,5-dimethoxybenzoylamino)-4-methylvalerylamino]-1-furfurylthio-2-heptanone] | 4.2 µM
10 | CCCC[C@H](NC(=O)[C@H](CC(C)C)NC(=O)c1cc(F)c(F)c(F)c1F)C(=O)CSCc1ccco1 [67 (No. 132), (s)-1-furfurylthio-3-[(s)-4-methyl-2-(2,3,4,5-tetrafluorobenzoylamino)valerylamino]-2-heptanone] | 2.1 µM
11 | CCCC[C@H](NC(=O)[C@H](CC(C)C)NC(=O)C1CCCCC1)C(=O)CSCc1ccco1 [29 (No. 65), (s)-3-((s)-2-cyclohexylcarbonylamino-4-methylvalerylamino)-1-furfurylthio-2-heptanone] | 3.6 µM
12 | CCCC[C@H](NC(=O)[C@H](CC(C)C)NC(=O)OCc1ccccc1)C(=O)CSCc1cccnc1 [106 (No. 228), (s)-3-((s)-2-benzyloxycarbonylamino-4-methylvalerylamino)-1-(3-pyridylmethylthio)-2-heptanone] | 3.1 µM
13 | CCCC[C@H](NC(=O)[C@H](CC(C)C)NC(=O)c1ccc(C)cc1)C(=O)CSCc1ccco1 [71 (No. 142), (s)-1-furfurylthio-3-[(s)-4-methyl-2-(4-toluoylamino)valerylamino]-2-heptanone] | 4.2 µM

Continued, values first:

Row | IC50 | SMILES
14 | 9.6 µM | CC(C)C[C@H](NC(=O)OCc1ccccc1)C(=O)N[C@@H](Cc1ccccc1)C(=O)CSCc1ccc(Cl)s1 [183 (No. 423), (s)-3-((s)-2-benzyloxycarbonylamino-4-methylvalerylamino)-1-(5-chloro-2-thienylmethylthio)-4-phenyl-2-butanone]
15 | 4.5 µM | CC(C)C[C@H](NC(=O)OCc1ccccc1)C(=O)N[C@@H](Cc1ccccc1)C(=O)CSCc1ccco1 [139 (No. 297), (s)-3-((s)-2-benzyloxycarbonylamino-4-methylvalerylamino)-1-furfurylthio-4-phenyl-2-butanone]
16 | 6.2 µM | CCCC[C@H](NC(=O)[C@H](CC(C)C)NC(=O)Cc1cccc2c1OCO2)C(=O)CSCc1ccco1 [32 (No. 73), (s)-1-furfurylthio-3-[(s)-4-methyl-2-(2,3-methylenedioxyphenylacetylamino)valerylamino]-2-heptanone]
17 | 1.9 µM | CCCC[C@H](NC(=O)[C@H](CC(C)C)NC(=O)c1c(F)cccc1F)C(=O)CSCc1ccco1 [61 (No. 123), (s)-3-[(s)-2-(2,6-difluorobenzoylamino)-4-methylvalerylamino]-1-furfurylthio-2-heptanone]
18 | 4.2 µM | CCCC[C@H](NC(=O)[C@H](CC(C)C)NC(=O)c1ccc(F)cc1F)C(=O)CSCc1ccco1 [59 (No. 121), (s)-3-[(s)-2-(2,4-difluorobenzoylamino)-4-methylvalerylamino]-1-furfurylthio-2-heptanone]
19 | 3.4 µM | CCCC[C@H](NC(=O)[C@H](CC(C)C)NC(=O)c1ccc(C(=O)OC)cc1)C(=O)CSCc1ccco1 [81 (No. 157), (s)-1-furfurylthio-3-[(s)-2-(4-methoxycarbonylbenzoylamino)-4-methylvalerylamino]-2-heptanone]
20 | 4.2 µM | CCCC[C@H](NC(=O)[C@H](CC(C)C)NC(=O)OCc1ccccc1)C(=O)CSCc1ccncc1 [107 (No. 230), (s)-3-((s)-2-benzyloxycarbonylamino-4-methylvalerylamino)-1-(4-pyridylmethylthio)-2-heptanone]
21 | 2.8 µM | CCCC[C@H](NC(=O)[C@H](CC(C)C)NC(=O)OCc1cccc(C#N)c1)C(=O)CSCc1ccco1 [26 (No. 57), (s)-3-[(s)-2-(3-cyanobenzyloxycarbonylamino)-4-methylvalerylamino]-1-furfurylthio-2-heptanone]
22 | 1.4 µM | CCCC[C@H](NC(=O)[C@H](CC(C)C)NC(=O)c1cc(F)c(F)c(F)c1)C(=O)CSCc1ccco1 [66 (No. 130), (s)-1-furfurylthio-3-[(s)-4-methyl-2-(3,4,5-trifluorobenzoylamino)valerylamino]-2-heptanone]
23 | 1.9 µM | CCCC[C@H](NC(=O)[C@H](CC(C)C)NC(=O)c1ccc(OC)cc1)C(=O)CSCc1ccco1 [79 (No. 153), (s)-1-furfurylthio-3-[(s)-2-(4-methoxybenzoylamino)-4-methylvalerylamino]-2-heptanone]
24 | 4.3 µM | CCCC[C@H](NC(=O)[C@H](CC(C)C)NC(=O)c1ccc(F)c(F)c1F)C(=O)CSCc1ccco1 [64 (No. 126), (s)-1-furfurylthio-3-[(s)-4-methyl-2-(2,3,4-trifluorobenzoylamino)valerylamino]-2-heptanone]
25 | > 100 µM | CC(C)C[C@H](NC(=O)OCc1ccccc1)C(=O)N1CCC[C@H]1C(=O)CSCc1ccco1 [Ref. Ex. No. 3, (s)-1-((s)-2-benzyloxycarbonylamino-4-methylvaleryl)-2-furfurylthioacetylpyrrolidine, reference compound]
26 | 1.3 µM | CCCC[C@H](NC(=O)[C@H](CC(C)C)NC(=O)COc1ccccc1OC)C(=O)CSCc1ccco1 [47 (No. 102), (s)-1-furfurylthio-3-[(s)-2-(2-methoxyphenoxyacetylamino)-4-methylvalerylamino]-2-heptanone]
27 | 5 µM | CCCC[C@H](NC(=O)[C@H](CC(C)C)NC(=O)c1ccccc1C)C(=O)CSCc1ccco1 [69 (No. 140), (s)-1-furfurylthio-3-[(s)-4-methyl-2-(2-toluoylamino)valerylamino]-2-heptanone]
28 | 1.5 µM | CCCC[C@H](NC(=O)[C@H](CC(C)C)NC(=O)c1ccccc1F)C(=O)CSCc1ccco1 [55 (No. 117), (s)-3-[(s)-2-(2-fluorobenzoylamino)-4-methylvalerylamino]-1-furfurylthio-2-heptanone]
29 | 5 µM | CCCC[C@H](NC(=O)[C@H](CC(C)C)NC(=O)c1c(F)ccc(F)c1F)C(=O)CSCc1ccco1 [65 (No. 128), (s)-1-furfurylthio-3-[(s)-4-methyl-2-(2,3,6-trifluorobenzoylamino)valerylamino]-2-heptanone]
